Assay results as given in patent US20020103228A1, “Composition and method for use of pyridinium derivatives in cosmetic and therapeutic applications” (TORRENT PHARMACEUTICALS LTD., priority 1999, published 2002).

Experiments:
AGE-BSA = molecular target: T1, AGE-BSA (Bos taurus, UniProt P02769); assay: In-vitro AGE breaking activity by ELISA; type: biochemical, Bovine; details: 37° C., 24 hours
T1 construct: Bovine serum albumin (fraction V) (BSA); from tissue; host or cells: bovine serum (fraction V); glycated in house with 1.6 M glucose at 37 °C for 16 weeks
Procedure: AGE breaking activity has been confirmed by the screening procedure as mentioned below:
Methods of experiment: Elisa (Enzyme Linked Immunosorbent Assay)
160 mg/ml of protein, bovine serum albumin, BSA and 1.6M glucose sugar were dissolved in phosphate buffered saline, PBS. Sodium azide was added at 0.02% concentration as a preservative. The solution was filtered asceptically through a […] filter and kept for aging at 37° C. for 16 weeks. After 16 weeks the solution was dialyzed against PBS, aliquoted and stored at −20° C.
To determine the AGE breaking activity, 10 μg/ml of the 16 weeks AGE-BSA was incubated with different concentrations of the test compounds at 37° C. for 24 hours and AGE breaking activity of the test compounds by ELISA was determined.
ELISA was performed as follows
1. Different concentrations of 16 weeks AGE-BSA were coated on a microtiter plate as standard. Each concentration is coated in triplicates.
2. The test samples were coated on microtiter plate at a concentration of 5 ng to 20 ng per well in triplicates
3. The plate was incubated at 37° C. for one hour.
4. After incubation the plate was washed with PBST (PBS with 0.05% Tween 20).
5. Blocking with 5% skimmed milk in PBS at 37° C. for one hour was done.
6. The plate was washed with PBST.
7. Primary antibody against AGE-BSA was added and the plate is incubated at 37° C. for one hour.
8. The plate was washed with PBST
9. Secondary antibody anti rabbit HRPO (Horse-Radish Per Oxidase) conjugate was added and the plate is incubated at 37° C. for one hour.
10. The plate was washed with PBST.
11. Colour development with OPD (orthophenylenediamine dihydrochloride) and hydrogen peroxide was done.
12. OD (optical density) at (450 nm reading-620 nm reading) was measured after incubation at 37° C. for 15 minutes with Microplate ELISA Reader
The breaker activity of the compounds were determined by the following formula: [formula]
OD450-620Control=Absorbance of 20 ng AGE-BSA after incubation at 37° C. for 24 hours without test compound
OD450-620Test=Absorbance of 20 ng AGE-BSA after incubation at 37° C. for 24 hours with required concentration of test compound
Using specific examples, the % AGE breaking activity was calculated and recorded in Table 2.

[1] = Free radical scavenging activity on ABTS radical cation; type: biochemical
Procedure: This method measures the relative ability of free radical scavenging substances to scavenge the ABTS^.+ i.e. 2,2-Azino-bis-(3-ethyl benzo thiazoline-6-sulfonate) radical cation as compared to a standard amount of standard or free radical scavengers antioxidants. Incubation of ABTS with Peroxidase (metmyoglobin) and hydrogen peroxide results in the production of radical cation ABTS^.+. This species is blue-green in colour and can be detected at 730 nm. Antioxidants or free radical scavengers in the added sample that causes suppression of the color to a degree that is proportional to their concentration.
Preparation of Buffer Solutions
A. Phosphate Citrate Buffer (pH 5.0). 48.5 ml of 0.1M citric acid with sufficient 0.2M disodium hydrogen phosphate to produce 100 ml.
B. Phosphate Buffer Saline (PBS): Dissolve 40.0 g of NaCl, 1.0 g of KCl, 1.0 g of KH2PO4 and 3.05 g of Na2HPO4 in 1 liter milli-Q water. Dilute 200 ml of above solution to 1 liter with milli-Q water (pH 7.4-7.6).
C. 3 μM stock solution of Peroxidase was prepared in phosphate buffer saline pH 7.4(PBS).
D. 1.08 mM stock solution of Hydrogen peroxide was prepared in phosphate buffer saline pH 7.4 (PBS).
Preparation of ABTS Stock Solution
1 tablet (10 mg) was dissolved in phosphate citrate buffer (pH 5.0).
Preparation of ABTS Working Solution
5.0 ml of ABTS stock solution was diluted with PBS to 20 ml.
Preparation of Horse Radish Peroxidase Stock Solution
320 μg of the enzyme was dissolved in 2.5 ml of PBS.
Preparation of Hydrogen Peroxide (1.08 mM) Solution
12 μl of Hydrogen Peroxide (30% w/v) was diluted to 100 ml with PBS. […]
Preparation of ABTS Radical Stock Solution
To 18 ml of ABTS stock solution, 100 μl of Horseradish Peroxidase stock solution was added.
As soon as 1.5 ml of hydrogen peroxide solution was added to the above solution, blue-green colour of the ABTS radicals appeared. This solution was incubated at 30° C. for 30 min.
Preparation of Control Solution
980 μl of ABTS radical stock solution was added to an eppendorf tube. To it was added 100 μl of various PBS solution.
Preparation of test Solution
980 μl of ABTS radical stock solutions were added to different eppendorf tubes. To it were added 100 μl of various concentrations of drug solution.
Measurement of Absorbance (O.D)
The absorbance of control and test samples was recorded immediately at 730 nm taking PBS as blank.
Calculation: The percent antioxidant activity was calculated according to the formula. % Antioxidant activity=[O.D of test sample/O.D of control*100]−100.

T1 sequence (P02769 25-607): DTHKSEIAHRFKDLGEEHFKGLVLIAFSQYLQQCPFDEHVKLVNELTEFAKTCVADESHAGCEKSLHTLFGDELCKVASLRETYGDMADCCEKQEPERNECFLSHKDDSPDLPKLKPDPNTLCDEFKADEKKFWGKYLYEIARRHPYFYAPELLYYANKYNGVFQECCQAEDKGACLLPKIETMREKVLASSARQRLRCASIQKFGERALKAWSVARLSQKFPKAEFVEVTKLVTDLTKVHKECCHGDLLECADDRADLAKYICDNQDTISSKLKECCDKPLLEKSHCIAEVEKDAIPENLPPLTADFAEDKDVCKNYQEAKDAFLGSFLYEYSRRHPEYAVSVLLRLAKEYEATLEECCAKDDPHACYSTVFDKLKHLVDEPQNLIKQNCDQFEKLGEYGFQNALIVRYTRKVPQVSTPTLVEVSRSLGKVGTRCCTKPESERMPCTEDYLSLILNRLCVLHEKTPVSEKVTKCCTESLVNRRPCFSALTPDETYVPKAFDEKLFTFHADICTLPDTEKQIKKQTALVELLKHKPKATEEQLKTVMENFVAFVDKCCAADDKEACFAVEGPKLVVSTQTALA

Row | Compound | % Breakage (AGE-BSA; 10 mM test compound) | Relative Free Radical Scavenging Activity (%) on ABTS ([1]; 11.5 μM) | Relative Free Radical Scavenging Activity (%) on ABTS ([1]; 23.0 μM) | Relative Free Radical Scavenging Activity (%) on ABTS ([1]; 46.0 μM) | Relative Free Radical Scavenging Activity (%) on ABTS ([1]; 92.5 μM) | Relative Free Radical Scavenging Activity (%) on ABTS ([1]; 925 μM) | % Breakage (AGE-BSA; 20 mM test compound) | % Breakage (AGE-BSA; 25 mM test compound)
1 | O=C(NNC(=O)c1ccc[n+](CC(=O)c2ccc(Cl)s2)c1)c1ccc[n+](CC(=O)c2ccc(Cl)s2)c1.[Cl-].[Cl-] [Compound 62, N,N′-bis[3-carbonyl-1-(2-(5-chlorothien-2-yl)-2-oxoethyl)pyridinium]hydrazine dichloride] | 78.41% |  |  |  |  |  |  | 
2 | O=C(C[n+]1cccc(C(=O)c2ccccc2)c1)c1ccccc1.[Br-] [Compound 98, 1-(2-Phenyl-2-oxoethyl)-3-(1-phenyl-1-oxomethyl)pyridinium bromide] |  | 7.1% | 26.9% | 51.1% | 78.6% | 99.1% |  | 
3 | CCOC(=O)C1CCCN1C(=O)C[n+]1cccc(C(=O)NNC(=O)c2ccc[n+](CC(=O)N3CCCC3C(=O)OCC)c2)c1.[Cl-].[Cl-] (stereo not shown) [Compound 59, N,N′-bis[3-carbonyl-1-(2-(2-ethoxycarbonylpyrrolidin-1-yl)-2-oxoethyl)pyridinium]hydrazine dichloride] | 20.31% |  |  |  |  |  |  | 
4 | O=C(C[n+]1cccc(C(=O)NCCO)c1)Nc1ccccc1.[Cl-] [Compound 95, 1-(2-Phenylamino-2-oxoethyl)-3-((2-hydroxyethyl)aminocarbonyl)-pyridinium chloride] |  |  |  |  |  |  | 48% | 
5 | O=C(C[n+]1ccc(C(=O)NCCOC(=O)c2ccccc2)cc1)Nc1ccccc1.[Cl-] [Compound 66, 1-(2-phenylamino-2-oxoethyl)-4-[2-(benzoyloxy)ethylaminocarbonyl]pyridinium chloride] | 19.07% |  |  |  |  |  |  | 
6 | O=C(C[n+]1cccc(C(=O)NCCOC(=O)c2ccccc2)c1)Nc1ccccc1.[Cl-] [Compound 23, 1-(2-phenylamino-2-oxoethyl)-3-((benzoyloxy)ethylaminocarbonyl)pyridinium chloride] | 37% |  |  |  |  |  |  | 90%
7 | O=C(C[n+]1cccc(C(=O)NNS(=O)(=O)Cc2ccccc2)c1)c1ccccc1.[Br-] [Compound 31, 1-(2-phenyl-2-oxoethyl)-3-((phenylmethyl)sulfonyl hydrazinocarbonyl)pyridinium bromide] |  | 41.6% | 57.7% | 66.9% | 99.2% | 100% |  | 
8 | O=C(NCCOC(=O)c1ccccc1)c1ccc[n+](CC(=O)c2cccs2)c1.[Br-] [Compound 36, 1-(2-thien-2′-yl-2-oxoethyl)-3-[2-(benzoyloxy)ethylaminocarbonyl]-pyridinium bromide] |  | 27.6% | 59.2% | 74.2% | 83.9% | 100% |  | 
9 | NC(=O)c1cccnc1 [Niacinamide, reference compound] |  | 0.0% | 2.2% | 3.8% | 3.8% | 9.2% |  | 
10 | O=C=Nc1ccc[n+](CC(=O)c2ccc(Cl)cc2Cl)c1.[Br-] [Compound 82, 3-Carbonylamino-1-(2-(2,4-dichlorophenyl)-2-oxoethyl)-pyridinium bromide] |  | 26.0% | 44.3% | 62.7% | 75.5% | 100% |  | 
11 | CCCCNC(=O)c1ccc[n+](CC(=O)c2ccc(Cl)cc2Cl)c1.[Br-] [Compound 97, 1-(2-(2,4-Dichlorophenyl)-2-oxoethyl)-3-(n-butylamino-carbonyl)pyridinium bromide] |  | 16.5% | 27% | 37.8% | 44.5% | 97.8% |  | 
12 | O=C1CCCC(CCNNC(=O)c2ccc[n+](CC(=O)Nc3ccccc3)c2)C1.[Br-] (stereo not shown) [Compound 35, 1-(2-phenylamino-2-oxoethyl)-3-({2-(1-oxo-3-cyclohexyl)-ethyl}-hydrazinocarbonyl}pyridinium bromide] |  | 50.5% | 63.4% | 80.9% | 90.6% | 100% |  | 
13 | O=C(NCCOC(=O)c1ccccc1)c1ccc[n+](CC(=O)c2ccc(Cl)cc2Cl)c1.[Br-] [Compound 8, 1-(2-(2′,4′-dichlorophenyl)-2-oxoethyl)-3-(2-(benzoyloxy)ethylamino-carbonyl)pyridinium bromide] |  | 40.8% | 53.7% | 72.6% | 81.2% | 100% |  | 
14 | O=C(CCC1CCCCC1)NNC(=O)c1ccc[n+](CC(=O)c2cccs2)c1.[Br-] [Compound 34, 1-(2-thien-2′-yl-2-oxoethyl)-3-((2-(1-oxo-3-cyclohexyl)-ethyl)-hydrazinocarbonyl)-pyridinium bromide] |  | 50.3% | 53.8% | 65.4% | 80.4% | 100% |  | 
15 | Cc1ccc(S(=O)(=O)NNC(=O)c2ccc[n+](CC(=O)Nc3ccccc3)c2)cc1.[Cl-] [Compound 27, 1-(2-phenylamino-2-oxoethyl)-3-((4-methylphenyl)sulfonyl hydrazinocarbonyl)pyridinium chloride] |  | 43.9% | 55.5% | 75.3% | 99.6% | 100% |  | 
16 | O=C(NCCOC(=O)c1ccccc1)c1cc[n+](CC(=O)c2cccs2)cc1.[Br-] [Compound 18, 1-(2-thien-2′-yl-2-oxoethyl)-4-(2-(benzoyloxy)ethylaminocarbonyl)pyridinium bromide] |  | 41.8% | 59.5% | 75.2% | 91.0% | 100% |  | 
